Experimental data as given in PubChem BioAssay AID1259407 (Chemical Carcinogenesis Research Information System (CCRIS), 2018).
Calls of active or inactive are those of the source. How the calls were made is not given here.

Test system: CCRIS mutagenicity, Ames/micronucleus/aberration tests
Experiment: CCRIS mutagenicity studies
[1] = Test System: AMES SALMONELLA TYPHIMURIUM, Strain/Indicator: TA98, Metabolic Activation: NONE, Method: STANDARD PLATE
[2] = Test System: AMES SALMONELLA TYPHIMURIUM, Strain/Indicator: TA98, Metabolic Activation: RAT, LIVER, S-9, AROCLOR 1254, Method: STANDARD PLATE
[3] = Test System: AMES SALMONELLA TYPHIMURIUM, Strain/Indicator: TA100, Metabolic Activation: NONE, Method: STANDARD PLATE
[4] = Test System: AMES SALMONELLA TYPHIMURIUM, Strain/Indicator: TA100, Metabolic Activation: RAT, LIVER, S-9, AROCLOR 1254, Method: STANDARD PLATE
[5] = Test System: AMES SALMONELLA TYPHIMURIUM, Strain/Indicator: TA1535, Metabolic Activation: NONE, Method: STANDARD PLATE
[6] = Test System: AMES SALMONELLA TYPHIMURIUM, Strain/Indicator: TA1535, Metabolic Activation: RAT, LIVER, S-9, AROCLOR 1254, Method: STANDARD PLATE
[7] = Test System: AMES SALMONELLA TYPHIMURIUM, Strain/Indicator: TA1537, Metabolic Activation: NONE, Method: STANDARD PLATE
[8] = Test System: AMES SALMONELLA TYPHIMURIUM, Strain/Indicator: TA1537, Metabolic Activation: RAT, LIVER, S-9, AROCLOR 1254, Method: STANDARD PLATE
[9] = Test System: AMES SALMONELLA TYPHIMURIUM, Strain/Indicator: TA1538, Metabolic Activation: NONE, Method: STANDARD PLATE
[10] = Test System: AMES SALMONELLA TYPHIMURIUM, Strain/Indicator: TA1538, Metabolic Activation: RAT, LIVER, S-9, AROCLOR 1254, Method: STANDARD PLATE

Nc1nc2ccc([N+](=O)[O-])cc2s1
mutagenic call (Test System: AMES SALMONELLA TYPHIMURIUM, Strain/Indicator: TA98, Metabolic Activation: HAMSTER, LIVER, S-9, AROCLOR 1254, Method: STANDARD PLATE): active; positive | mutagenic call [1]: active; positive | mutagenic call [2]: active; positive | mutagenic call (Test System: AMES SALMONELLA TYPHIMURIUM, Strain/Indicator: TA100, Metabolic Activation: HAMSTER, LIVER, S-9, AROCLOR 1254, Method: STANDARD PLATE): active; positive | mutagenic call [3]: inactive; negative | mutagenic call [4]: active; positive | mutagenic call (Test System: AMES SALMONELLA TYPHIMURIUM, Strain/Indicator: TA1535, Metabolic Activation: HAMSTER, LIVER, S-9, AROCLOR 1254, Method: STANDARD PLATE): active; positive | mutagenic call [5]: inactive; negative | mutagenic call [6]: inactive; negative | mutagenic call (Test System: AMES SALMONELLA TYPHIMURIUM, Strain/Indicator: TA1537, Metabolic Activation: HAMSTER, LIVER, S-9, AROCLOR 1254, Method: STANDARD PLATE): active; positive | mutagenic call [7]: inactive; negative | mutagenic call [8]: inactive; negative | mutagenic call (Test System: AMES SALMONELLA TYPHIMURIUM, Strain/Indicator: TA1538, Metabolic Activation: HAMSTER, LIVER, S-9, AROCLOR 1254, Method: STANDARD PLATE): active; positive | mutagenic call [9]: active; positive | mutagenic call [10]: active; positive | mutagenic call (Test System: MOUSE LYMPHOMA, Strain/Indicator: L5178Y (TK+/TK-), Metabolic Activation: NONE, Method: SUSPENSION/PLATE): inactive; negative. reevaluation of results: negative | mutagenic call (Test System: MOUSE LYMPHOMA, Strain/Indicator: L5178Y (TK+/TK-), Metabolic Activation: RAT, LIVER, S-9, AROCLOR 1254, Method: SUSPENSION/PLATE): inactive; negative. reevaluation of results: negative

Oc1ccc(O)c(-c2ccccc2)c1
mutagenic call (Test System: CHINESE HAMSTER V-79, Strain/Indicator: V-79 (HGPRT)/6-THIOGUANINE, Metabolic Activation: NONE): inactive; negative

Fc1cnc2ccc3cccnc3c2c1
mutagenic call (Test System: AMES SALMONELLA TYPHIMURIUM, Strain/Indicator: TA100, Metabolic Activation: RAT, LIVER, S-9, PHENOBARBITAL AND 5,6-BENZOFLAVONE, Method: PREINCUBATION): active; positive

O=S(=O)(Cc1ccccc1)N1[C@@H]2c3ccccc3-c3ccccc3[C@@H]21 (some centres undefined)
mutagenic call [3]: active; positive

O=C1NC(=O)C(c2ccccc2)(c2ccc(O)cc2)N1 (centres undefined)
mutagenic call (Test System: AMES SALMONELLA TYPHIMURIUM, Strain/Indicator: TA97, Metabolic Activation: NONE, Method: STANDARD PLATE): inactive; negative | mutagenic call (Test System: AMES SALMONELLA TYPHIMURIUM, Strain/Indicator: TA97, Metabolic Activation: RAT, LIVER, S-9, 3-METHYLCHOLANTHRENE, Method: PREINCUBATION (10, 20 OR 30 MIN)): inactive; negative | mutagenic call (Test System: AMES SALMONELLA TYPHIMURIUM, Strain/Indicator: TA97, Metabolic Activation: RAT, LIVER, S-9, 3-METHYLCHOLANTHRENE, Method: STANDARD PLATE): inactive; negative | mutagenic call (Test System: AMES SALMONELLA TYPHIMURIUM, Strain/Indicator: TA97, Metabolic Activation: RAT, LIVER, S-9, AROCLOR 1254, Method: PREINCUBATION (10, 20 OR 30 MIN)): inactive; negative | mutagenic call (Test System: AMES SALMONELLA TYPHIMURIUM, Strain/Indicator: TA97, Metabolic Activation: RAT, LIVER, S-9, AROCLOR 1254, Method: STANDARD PLATE): inactive; negative | mutagenic call (Test System: AMES SALMONELLA TYPHIMURIUM, Strain/Indicator: TA97, Metabolic Activation: RAT, LIVER, S-9, PHENOBARBITONE, Method: PREINCUBATION (10, 20 OR 30 MIN)): inactive; negative | mutagenic call (Test System: AMES SALMONELLA TYPHIMURIUM, Strain/Indicator: TA97, Metabolic Activation: RAT, LIVER, S-9, PHENOBARBITONE, Method: STANDARD PLATE): inactive; negative | mutagenic call [1]: inactive; negative | mutagenic call (Test System: AMES SALMONELLA TYPHIMURIUM, Strain/Indicator: TA98, Metabolic Activation: RAT, LIVER, S-9, 3-METHYLCHOLANTHRENE, Method: STANDARD PLATE): inactive; negative | mutagenic call [2]: inactive; negative | mutagenic call (Test System: AMES SALMONELLA TYPHIMURIUM, Strain/Indicator: TA98, Metabolic Activation: RAT, LIVER, S-9, PHENOBARBITONE, Method: STANDARD PLATE): inactive; negative | mutagenic call [3]: inactive; negative | mutagenic call (Test System: AMES SALMONELLA TYPHIMURIUM, Strain/Indicator: TA100, Metabolic Activation: RAT, LIVER, S-9, 3-METHYLCHOLANTHRENE, Method: STANDARD PLATE): inactive; negative | mutagenic call [4]: inactive; negative | mutagenic call (Test System: AMES SALMONELLA TYPHIMURIUM, Strain/Indicator: TA100, Metabolic Activation: RAT, LIVER, S-9, PHENOBARBITONE, Method: STANDARD PLATE): inactive; negative | mutagenic call (Test System: AMES SALMONELLA TYPHIMURIUM, Strain/Indicator: TA1530, Metabolic Activation: NONE, Method: STANDARD PLATE): inactive; negative | mutagenic call (Test System: AMES SALMONELLA TYPHIMURIUM, Strain/Indicator: TA1530, Metabolic Activation: RAT, LIVER, S-9, 3-METHYLCHOLANTHRENE, Method: STANDARD PLATE): inactive; negative | mutagenic call (Test System: AMES SALMONELLA TYPHIMURIUM, Strain/Indicator: TA1530, Metabolic Activation: RAT, LIVER, S-9, AROCLOR 1254, Method: STANDARD PLATE): inactive; negative | mutagenic call (Test System: AMES SALMONELLA TYPHIMURIUM, Strain/Indicator: TA1530, Metabolic Activation: RAT, LIVER, S-9, PHENOBARBITONE, Method: STANDARD PLATE): inactive; negative | mutagenic call [7]: inactive; negative | mutagenic call (Test System: AMES SALMONELLA TYPHIMURIUM, Strain/Indicator: TA1537, Metabolic Activation: RAT, LIVER, S-9, 3-METHYLCHOLANTHRENE, Method: STANDARD PLATE): inactive; negative | mutagenic call [8]: inactive; negative | mutagenic call (Test System: AMES SALMONELLA TYPHIMURIUM, Strain/Indicator: TA1537, Metabolic Activation: RAT, LIVER, S-9, PHENOBARBITONE, Method: STANDARD PLATE): inactive; negative | mutagenic call [9]: inactive; negative | mutagenic call (Test System: AMES SALMONELLA TYPHIMURIUM, Strain/Indicator: TA1538, Metabolic Activation: RAT, LIVER, S-9, 3-METHYLCHOLANTHRENE, Method: STANDARD PLATE): inactive; negative | mutagenic call [10]: inactive; negative | mutagenic call (Test System: AMES SALMONELLA TYPHIMURIUM, Strain/Indicator: TA1538, Metabolic Activation: RAT, LIVER, S-9, PHENOBARBITONE, Method: STANDARD PLATE): inactive; negative

Nc1c[n+](N2CCOCC2)no1
mutagenic call (Test System: E. COLI, Strain/Indicator: WP2 UVRA (PKM101), Metabolic Activation: NONE, Method: STANDARD PLATE): inactive; negative | mutagenic call (Test System: E. COLI, Strain/Indicator: WP2 UVRA/OXYR (PKM101), Metabolic Activation: NONE, Method: STANDARD PLATE): active; positive

CCOP(=O)(OCC)Oc1cc(C)nc(C(C)C)n1
mutagenic call [1]: inactive; negative | mutagenic call (Test System: AMES SALMONELLA TYPHIMURIUM, Strain/Indicator: TA98, Metabolic Activation: RAT, LIVER, S-9, Method: STANDARD PLATE): inactive; negative | mutagenic call [3]: active; positive | mutagenic call (Test System: AMES SALMONELLA TYPHIMURIUM, Strain/Indicator: TA100, Metabolic Activation: RAT, LIVER, S-9, Method: STANDARD PLATE): inactive; negative

NC(CO)C(=O)O (centres undefined)
mutagenic call (Test System: AMES SALMONELLA TYPHIMURIUM, Strain/Indicator: TA98, Metabolic Activation: RAT LIVER S-9, CHLOROPHENE, Method: STANDARD PLATE (COMPOUND HEATED AT 250 DEGREES CELSIUS FOR 20 MIN)): inactive; negative

O=S(=O)(O)CNc1ccc(N=Nc2cccnc2)cc1
mutagenic call [1]: inactive; negative | mutagenic call [2]: inactive; negative | mutagenic call [3]: inactive; negative | mutagenic call [4]: inactive; negative | mutagenic call [5]: inactive; negative | mutagenic call [6]: inactive; negative | mutagenic call [7]: inactive; negative | mutagenic call [8]: inactive; negative | mutagenic call [9]: inactive; negative | mutagenic call [10]: inactive; negative
